Data: patent publication US8987502B2, “Oleanolic acid amidate derivatives, preparation methods and uses thereof” (Hangzhou Bensheng Pharmaceutical Co., Ltd., priority 2011, dated 2015)
Converted amounts (≈) assume the structure as drawn.

Assays:
PC-3 = assay: MTT solid tumor cell proliferation inhibition, PC-3; format: cell-based, human; conditions: Homo sapiens; for inhibition at 16 µg/mL: PC-3, 16 μg/mL compound, 72 h, read-out: IR (inhibition rate); for IC50: PC-3, 72 h, MTT
Method: (§1) Human solid tumor cell lines: Hep-2 (laryngeal carcinoma), A549 (human lung cancer), CaES-17 (esophageal cancer cell), PC-3 (prostate cancer), CNE (nasopharyngeal carcinoma cell), and SK-OV-3 (ovarian cancer cell), all of which are purchased from China Center For Type Culture Collection; RKO (human colon adenocarcinoma cell), MGC 803 (human gastric cancer cell), MG63 (osteosarcoma) and U87 MG (malignant glioma cell), all of which are purchased from Fuxiang Bio-tech Co. Ltd., Shanghai, China; PANC-1 (pancreatic cancer), Hep G2 (human liver cancer cell), Becap37 (human breast cancer cell), and Hela (human cervical cancer cell), all of which are donated by Cancer Research Institute of Zhejiang University, China.
(§2) Obtaining 4000 well-growing human solid tumor cells and inoculating them into wells of a 96-well cell culture plate. The culture medium is DMEM High Glucose cell culture medium containing 10% fetal bovine serum. The plate is placed in a carbon dioxide cell incubator (5% CO2) at 37° C. for 24 hours for incubation. After being added with the amidated oleanolic acid derivatives of different concentrations and mixed uniformly, the plate is placed in a carbon dioxide cell incubator (5% CO2) at 37° C. for 72 hours for incubation. Then the relative number of the living cells is determined by the MTT method. In this experiment, the cell proliferation inhibition rate in control group (not treated with any compound) is set as 0%.

PANC-1 = assay: MTT solid tumor cell proliferation inhibition, PANC-1; format: cell-based, human; conditions: Homo sapiens; for inhibition at 16 µg/mL: PANC-1, 16 μg/mL compound, 72 h, read-out: IR (inhibition rate); for IC50: PANC-1, 72 h, MTT
Method: as §1, §2

A549 = assay: MTT solid tumor cell proliferation inhibition, A549; format: cell-based, human; conditions: Homo sapiens; for inhibition at 16 µg/mL: A549, 16 μg/mL compound, 72 h, read-out: IR (inhibition rate); for IC50: A549, 72 h, MTT
Method: as §1, §2

RPMI8226 = assay: MTT multiple myeloma cell proliferation inhibition, RPMI8226; format: cell-based; conditions: Homo sapiens, RPMI-8226; for inhibition at 16 µg/mL: RPMI8226, 16 μg/mL compound, 72 h, read-out: IR (inhibition rate); for IC50: RPMI8226, 72 h, MTT
Method: Multiple myeloma cell lines: RPMI8226 (multiple myeloma), purchased from Fuxiang Bio-tech Co. Ltd., Shanghai, China.
(§3) Obtaining 6000 well-growing leukemia cells and inoculating them into wells of a 96-well cell culture plate. The culture medium is the 1640 cell culture medium containing 10% fetal bovine serum. After adding the amidated oleanolic acid derivatives of different concentrations and mixing uniformly, placing the plate in a carbon dioxide cell incubator (5% CO2) at 37° C. and incubated for 72 hours. Then the relative number of viable cells is determined by the MTT method. In this experiment, the cell proliferation inhibition rate in control group (not treated with any compound) is set as 0%.

MG 63 = assay: MTT solid tumor cell proliferation inhibition, MG 63; format: cell-based, human; conditions: for IC50: Homo sapiens, MG 63, 72 h, MTT; for IR (inhibition rate): MG 63, 16 μg/mL compound, 72 h
Method: as §1, §2

K562/adr = assay: MTT leukemia cell proliferation inhibition, K562/adr; format: cell-based; conditions: Homo sapiens, 72 h; for inhibition at 16 µg/mL: 16 μg/mL compound, read-out: IR (inhibition rate); for IC50: MTT
Description: (§4) Leukemia cell lines: leukemia cell lines: K562/adr (drug-resistant, chronic myeloid leukemia, CML), NB4 (acute promyelocytic leukemia, AML), Kasumi-1 (acute myeloid leukemia M2 type, AML-M2), Jurkat (acute lymphoblastic leukemia, ALL), all of which are donated by Cancer Research Institute of Zhejiang University, China; and H9 (acute lymphoblastic leukemia, ALL), which is purchased from China Center for Type Culture Collection (CCTCC).
(§5) Reagents: The standard sample of oleanolic acid (OA) is purchased from Hua Kang Pharmaceutical Raw Material Factory, Shifang City, Sichuan, China; and the amidated oleanolic acid derivatives are prepared according to the present invention.
as §3

SK-OV-3 = assay: MTT solid tumor cell proliferation inhibition, SK-OV-3; format: cell-based, human; conditions: Homo sapiens; for inhibition at 16 µg/mL: SK-OV-3, 16 μg/mL compound, 72 h, read-out: IR (inhibition rate); for IC50: SK-OV-3, 72 h, MTT
Method: as §1, §2

Hep-2 = assay: MTT solid tumor cell proliferation inhibition, Hep-2; format: cell-based, human; conditions: Homo sapiens; for inhibition at 16 µg/mL: Hep-2, 16 μg/mL compound, 72 h, read-out: IR (inhibition rate); for IC50: Hep-2, 72 h, MTT
Method: as §1, §2

U87 MG = assay: MTT solid tumor cell proliferation inhibition, U87 MG; format: cell-based, human; conditions: Homo sapiens, U-87 MG, U87 MG, 72 h; for inhibition at 16 µg/mL: 16 μg/mL compound, read-out: IR (inhibition rate); for IC50: MTT
Method: as §1, §2

RKO = assay: MTT solid tumor cell proliferation inhibition, RKO; format: cell-based; conditions: Homo sapiens, 72 h; for inhibition at 16 µg/mL: 16 μg/mL compound, read-out: IR (inhibition rate); for IC50: MTT
Method: as §1, §2

Jurkat = assay: MTT leukemia cell proliferation inhibition, Jurkat; format: cell-based; conditions: Homo sapiens, 72 h; for inhibition at 16 µg/mL: 16 μg/mL compound, read-out: IR (inhibition rate); for IC50: MTT
Description: as §4, §5, §3

NB4 = assay: MTT leukemia cell proliferation inhibition, NB4; format: cell-based; conditions: Homo sapiens, NB-4; for inhibition at 16 µg/mL: NB4, 16 μg/mL compound, 72 h, read-out: IR (inhibition rate); for IC50: NB4, 72 h, MTT
Description: as §4, §5, §3

Hep G2 = assay: MTT solid tumor cell proliferation inhibition, Hep G2; format: cell-based; conditions: Homo sapiens, HepG2; for inhibition at 16 µg/mL: Hep G2, 16 μg/mL compound, 72 h, read-out: IR (inhibition rate); for IC50: Hep G2, 72 h, MTT
Method: as §1, §2

Becap37 = assay: MTT solid tumor cell proliferation inhibition, Becap37; format: cell-based; conditions: Homo sapiens; for inhibition at 16 µg/mL: Becap37, 16 μg/mL compound, 72 h, read-out: IR (inhibition rate); for IC50: Becap37, 72 h, MTT
Method: as §1, §2

MGC803 = assay: MTT solid tumor cell proliferation inhibition, MGC803; format: cell-based, human; conditions: Homo sapiens, MGC-803; for inhibition at 16 µg/mL: MGC803, 16 μg/mL compound, 72 h, read-out: IR (inhibition rate); for IC50: MGC803, 72 h, MTT
Method: as §1, §2

H9 = assay: MTT leukemia cell proliferation inhibition, H9; format: cell-based, human; conditions: Homo sapiens; for inhibition at 16 µg/mL: H9, 16 μg/mL compound, 72 h, read-out: IR (inhibition rate); for IC50: H9, 72 h, MTT
Description: as §4, §5, §3

Kasumi-1 = assay: MTT leukemia cell proliferation inhibition, Kasumi-1; format: cell-based; conditions: Homo sapiens; for inhibition at 16 µg/mL: Kasumi-1, 16 μg/mL compound, 72 h, read-out: IR (inhibition rate); for IC50: Kasumi-1, 72 h, MTT
Description: as §4, §5, §3

Hela = assay: MTT solid tumor cell proliferation inhibition, Hela; format: cell-based, human; conditions: Homo sapiens, Hela, 72 h; for inhibition at 16 µg/mL: 16 μg/mL compound, read-out: IR (inhibition rate); for IC50: MTT
Method: as §1, §2

CaES-17 = assay: MTT solid tumor cell proliferation inhibition, CaES-17; format: cell-based, human; conditions: Homo sapiens, CaEs17; for inhibition at 16 µg/mL: CaES-17, 16 μg/mL compound, 72 h, read-out: IR (inhibition rate); for IC50: CaES-17, 72 h, MTT
Method: as §1, §2

CNE = assay: MTT solid tumor cell proliferation inhibition, CNE; format: cell-based, human; conditions: Homo sapiens, CNE, 72 h; for inhibition at 16 µg/mL: 16 μg/mL compound, read-out: IR (inhibition rate); for IC50: MTT
Method: as §1, §2

| IC50 (PC-3) [µg/mL] | IC50 (PANC-1) [µg/mL] | IC50 (A549) [µg/mL] | IC50 (RPMI8226) [µg/mL] | IC50 (MG 63) [µg/mL] | IC50 (K562/adr) [µg/mL] | IC50 (SK-OV-3) [µg/mL] | IC50 (Hep-2) [µg/mL] | IC50 (U87 MG) [µg/mL] | IC50 (RKO) [µg/mL] | SMILES | inhibition at 16 µg/mL (PC-3) [%] | inhibition at 16 µg/mL (PANC-1) [%] | inhibition at 16 µg/mL (A549) [%] | inhibition at 16 µg/mL (RPMI8226) [%] | IR (inhibition rate) (MG 63) [%] | inhibition at 16 µg/mL (K562/adr) [%] | inhibition at 16 µg/mL (SK-OV-3) [%] | inhibition at 16 µg/mL (Hep-2) [%] | inhibition at 16 µg/mL (U87 MG) [%] | inhibition at 16 µg/mL (RKO) [%] | other results |
| --- | --- | --- | --- | --- | --- | --- | --- | --- | --- | --- | --- | --- | --- | --- | --- | --- | --- | --- | --- | --- | --- |
| 19.9 (≈ 37.4 µM) | > 16 | > 16 | 6.49 (≈ 12.2 µM) | > 16 | 6.29 (≈ 11.8 µM) | > 16 | > 16 | > 16 | > 16 | CC1(C)CC[C@]2(NC(=O)c3ccccc3)CC[C@]3(C)C(=CC[C@@H]4[C@@]5(C)CC[C@H](O)C(C)(C)[C@@H]5CC[C@]43C)[C@@H]2C1 [BS-OA-101] | 45.7 | 20.6 | 37.6 | 97.5 | 17.3 | 88.7 | 39.7 | 7.5 | 36.4 | 22.5 | inhibition at 16 µg/mL (Jurkat): 30%; IC50 (Jurkat): > 16 µg/mL; inhibition at 16 µg/mL (NB4): 96.1%; IC50 (NB4): 8.2 µg/mL (≈ 15.4 µM); inhibition at 16 µg/mL (Hep G2): 16.1%; IC50 (Hep G2): > 16 µg/mL; inhibition at 16 µg/mL (Becap37): 18.1%; IC50 (Becap37): > 16 µg/mL; inhibition at 16 µg/mL (MGC803): 33.2%; IC50 (MGC803): > 16 µg/mL; inhibition at 16 µg/mL (H9): 58.7%; IC50 (H9): 14 µg/mL (≈ 26.3 µM); inhibition at 16 µg/mL (Kasumi-1): 53.8%; IC50 (Kasumi-1): 15.4 µg/mL (≈ 29 µM); inhibition at 16 µg/mL (Hela): 57%; IC50 (Hela): 15.8 µg/mL (≈ 29.8 µM); inhibition at 16 µg/mL (CaES-17): 25.8%; IC50 (CaES-17): > 16 µg/mL; inhibition at 16 µg/mL (CNE): 36.2%; IC50 (CNE): > 16 µg/mL |
| > 16 | > 16 | > 16 | 9.63 (≈ 17.1 µM) | > 16 | 5.7 (≈ 10.1 µM) | > 16 | > 16 | > 16 | > 16 | COc1cccc(C(=O)N[C@]23CCC(C)(C)C[C@H]2C2=CC[C@@H]4[C@@]5(C)CC[C@H](O)C(C)(C)[C@@H]5CC[C@@]4(C)[C@]2(C)CC3)c1 [BS-OA-103] | 24.5 | 33.7 | 29.8 | 90.2 | −25.4 | 87.3 | 17.2 | 10.6 | 3.7 | -11.7 | inhibition at 16 µg/mL (Jurkat): -2.5%; IC50 (Jurkat): > 16 µg/mL; inhibition at 16 µg/mL (NB4): 48.5%; IC50 (NB4): 16 µg/mL (≈ 28.5 µM); inhibition at 16 µg/mL (Hep G2): 8%; IC50 (Hep G2): > 16 µg/mL; inhibition at 16 µg/mL (Becap37): 4.6%; IC50 (Becap37): > 16 µg/mL; inhibition at 16 µg/mL (MGC803): 7%; IC50 (MGC803): > 16 µg/mL; inhibition at 16 µg/mL (H9): 34.1%; IC50 (H9): > 16 µg/mL; inhibition at 16 µg/mL (Kasumi-1): 19.9%; IC50 (Kasumi-1): > 16 µg/mL; inhibition at 16 µg/mL (Hela): 38.4%; IC50 (Hela): > 16 µg/mL; inhibition at 16 µg/mL (CaES-17): -5.9%; IC50 (CaES-17): > 16 µg/mL; inhibition at 16 µg/mL (CNE): 26%; IC50 (CNE): > 16 µg/mL |
